Values of other authors as cited in patent US7166295B1, “Methods of treatment and diagnostic visualization, particularly in cancer” (priority 1995, dated 2007).

Settings: incorporated in liposomes, injected intraperitoneally into mice; compared with injection of the respective free drug

Compound | concentration of drug in the plasma, spleen and lymphoid tissue relative to the free drug
CCCCCCCCCCCCCCCC(=O)OCC(COP(=O)(O)OCC1OC(n2cc(C)c(=O)[nH]c2=O)CC1N=[N+]=[N-])OC(=O)CCCCCCCCCCCCCCC (centres unmarked) [DPP-AZT, Dipalmitoyl-phosphatidyl-3′-Azido-3′-deoxythymidine] | increased concentration of drug in the plasma, spleen and lymphoid tissue
CCCCCCCC/C=C\CCCCCCCC(=O)OCC(COP(=O)(O)OC[C@@H]1CCC(n2ccc(N)nc2=O)O1)OC(=O)CCCCCCC/C=C\CCCCCCCC (some centres unmarked) [DOP-ddc, Dioleoyl-phospathidyl-ddc] | increased concentration of drug in the plasma, spleen and lymphoid tissue
